From US11352408B2, “Antitumor peptide having PD-1 signal sequence and utilization thereof” (TOAGOSEI CO.,LTD., priority 2017, dated 2022) come the findings set out here.

Data set [1] concerns human melanoma cell line (A2058). The format is cell-based. The note with it: 48 h. The procedure: (§1) Some of the sample peptides synthesized in Test Example 1 were evaluated for antitumor activity on several types of cultured tumor cells.
(§2) Specifically, test tumor cells used were currently commercially available human non small cell lung cancer cell line (NCI-H2444), human non small cell lung cancer cell line (HCC827), human alveolar basal epithelial adenocarcinoma cell line (A549), human small cell lung cancer cell line (NCI-H446), human melanoma cell line (A2058) and human breast adenocarcinoma cell line (MDA-MB-231). As a comparison, a commercially available cultured normal human mammary epithelial cell line (MCF-12F) was used.
(§3) (2) human melanoma cell line (A2058) and human breast adenocarcinoma cell line (MDA-MB-231):
(§4) DMEM medium (product from Wako Pure Chemical Industries, Ltd.) containing 2 mM L-glutamine, 0.1 mM non-essential amino acids, 50 units/mL penicillin, 50 μg/mL streptomycin and 10% FBS; and
(§5) The above six cell lines were cultured in each of the media indicated above and the number of cells was adjusted to be approximately 5×10^3 per well in a 96-well plate. The amount of the medium was 100 μL per well.
(§6) The 96-well plate was placed in a CO2 incubator and pre-incubated under conditions of 37° C. and 5% CO2 for approximately one day (21 hours to 24 hours).
(§7) Thereafter, peptide-containing test media were respectively prepared for each concentration so that the concentration of any of the sample peptides to be evaluated was either 12.5 μM or 25 μM, and were supplied to wells (namely, wells after pre-incubation above) in which cells to be evaluated were cultured at 90 μL per well. The 96-well plate was placed back in the CO2 incubator and incubated under conditions of 37° C. and 5% CO2 for 48 hours.
(§8) The number (n) of test wells per each peptide concentration in the test section to which peptides were added was 3. Therefore, the values indicated in the result section in the table hereinbelow are averages of results obtained from 3 test wells. The cell viability (%) was determined as indicated hereinbelow.
(§9) After a 48-hour incubation, the medium in the wells was replaced by 100 μL fresh medium without peptide, and 10 μL of a reagent for cell proliferation measurement “Cell Counting Kit-8” (product from Dojindo Laboratories) containing “water-soluble tetrazolium salt (WST-8)” as a chromogenic reagent was added to each well. The 96-well plate was then placed back in the CO2 incubator and incubated under conditions of 37° C. and 5% CO2 for 1.5 hours to 2 hours.
(§10) After completion of the incubation, the cell culture medium to which the reagent was added was recovered and the cell viability (%) was evaluated by a colorimetric method in which the absorbance at a wavelength of 450 nm (the value corrected with the absorbance at a wavelength 650 nm: A450-A650) due to reduction of the tetrazolium salt was measured. Specifically, the cell viability (%) of each test cell line was calculated from the measured absorbance as a relative value to the measured value (measured absorbance) in the comparative test section in which the incubation over 48 hours as above was carried out only with a medium without peptide, that was regarded as 100% of the cell viability.

The subject of data set [2] is human breast adenocarcinoma cell line (MDA-MB-231). The format is cell-based. The note with it: 48 h. The procedure: as §1, §2, §3, §4, §5, §6, §7, §8, §9, §10
Data set [3] concerns tumor cells tested in the present Test Example. Kind of data set: Evaluation test on antitumor activities of synthetic peptides, overall finding. The note with it: compared to comparative samples 3 to 5. In kind it is cell-based, human. As for the experimental part:
(§11) The cell viability (%) was determined as indicated hereinbelow.

A short description of the next data set: in vitro. The format is cell-based. The note with it: human. As for the experimental part:
(3) cultured normal human mammary epithelial cell line (MCF-12F):
DMEM/F12 medium (product from Wako Pure Chemical Industries, Ltd.) containing 20 ng/mL recombinant EGF, 10 μg/mL insulin, 0.5 μg/mL hydrocortisone and 10% FBS.
as §11

Data set [4] has as its system human non small cell lung cancer cell line (NCI-H2444). In words: Antitumor activity evaluation, cell viability by Cell Counting Kit-8 (WST-8). In kind it is cell-based. The procedure: as §11
Data set [5] concerns human non small cell lung cancer cell line (HCC827). The description is as above. In kind it is cell-based. As for the experimental part:
as §11

For data set [6], the system named is human small cell lung cancer cell line (NCI-H446). The format is cell-based. The note with it: 48 h. As for the experimental part: as §11
The subject of data set [7] is human alveolar basal epithelial adenocarcinoma cell line (A549). The note with it: 48 hours, relative to medium without peptide = 100%. As for the experimental part:
as §1, §2
The above six cell lines were cultured in each of the media indicated above and the number of cells was adjusted to be approximately 5×10^3 per well in a 96-well plate. The amount of the medium was 100 μL per well. […]
Thereafter, peptide-containing test media were respectively prepared for each concentration so that the concentration of any of the sample peptides to be evaluated was either 12.5 μM or 25 μM, and were supplied to wells (namely, wells after pre-incubation above) in which cells to be evaluated were cultured at 90 μL per well. […]
The number (n) of test wells per each peptide concentration in the test section to which peptides were added was 3. […] The cell viability (%) was determined as indicated hereinbelow. […]

The structures appear in SMILES notation. Where two headings read alike, the source gives them in different places. Where a SMILES comes first, the peptide text is derived from it.

For `CC[C@H](C)[C@H](NC(=O)[C@H](CCC(N)=O)NC(=O)[C@@H](N)CCSC)C(=O)N1CCC[C@H]1C(=O)N[C@@H](CCC(N)=O)C(=O)N[C@@H](C)C(=O)N1CCC[C@H]1C(=O)N[C@@H](Cc1c[nH]c2ccccc12)C(=O)N1CCC[C@H]1C(=O)N[C@H](C(=O)N[C@H](C(=O)N[C@@H](Cc1c[nH]c2ccccc12)C(=O)N[C@@H](C)C(=O)N[C@H](C(=O)N[C@@H](CC(C)C)C(=O)N[C@@H](CCC(N)=O)C(=O)N[C@@H](CC(C)C)C(=O)NCC(=O)N[C@@H](Cc1c[nH]c2ccccc12)C(=O)N[C@@H](CCCNC(=N)N)C(=O)N[C@@H](CCCCN)C(=O)N[C@@H](CCCCN)C(=O)N[C@@H](CCCNC(=N)N)C(=O)N[C@H](C(=O)N[C@@H](CC(C)C)C(=O)N[C@@H](CCCNC(=N)N)C(=O)N[C@@H](CCCCN)C(=O)N[C@@H](CC(N)=O)C(=O)N[C@@H](CC(=O)O)C(=O)N[C@@H](CCCNC(=N)N)C(=O)N[C@@H](CCCCN)C(=O)N[C@@H](CCCCN)C(=O)N[C@@H](CCCNC(=N)N)C(N)=O)[C@@H](C)O)C(C)C)C(C)C)C(C)C` [Sample 1] (H-MQIPQAPWPVVWAVLQLGWRKKRTLRKNDRKKR-NH2; N-terminus assumed), the “Cell viability (%)” value stood at 50.4% in data set [1] (12.5 µM); 6.7% in data set [1] (25 µM); 63.1% in data set [2] (12.5 µM); 9.9% in data set [2] (25 µM); 59.6% in data set [4] (human, 48 h, 12.5 µM); 6.8% in data set [4] (human, 48 h, 25 µM). In addition, the “Cell viability (%)” value in data set [5] (human, 48 h, 12.5 µM) is listed as 49.8%; in data set [5] (human, 48 h, 25 µM), 11.8%; in data set [6] (12.5 µM), 2.5%; in data set [6] (25 µM), 0.5%. Also, the “antitumor activity (inhibitory activity of proliferation of tumor cells)” value in data set [3] is “excellent antitumor activity”. In “in vitro”, this compound gave a viability at 48 h, 12.5 µM of 97.4%. This compound also returned a viability at 48 h, 25 µM in the data set “in vitro” of 62.3%.

Take `CC[C@H](C)[C@H](NC(=O)[C@H](CCC(N)=O)NC(=O)[C@@H](N)CCSC)C(=O)N1CCC[C@H]1C(=O)N[C@@H](CCC(N)=O)C(=O)N[C@@H](C)C(=O)N1CCC[C@H]1C(=O)N[C@@H](Cc1c[nH]c2ccccc12)C(=O)N1CCC[C@H]1C(=O)N[C@H](C(=O)N[C@H](C(=O)N[C@@H](Cc1c[nH]c2ccccc12)C(=O)N[C@@H](C)C(=O)N[C@H](C(=O)N[C@@H](CC(C)C)C(=O)N[C@@H](CCC(N)=O)C(=O)N[C@@H](CC(C)C)C(=O)NCC(=O)N[C@@H](Cc1c[nH]c2ccccc12)C(=O)N[C@@H](CCCNC(=N)N)C(=O)N[C@@H](CCCNC(=N)N)C(=O)N[C@@H](CCCCN)C(=O)N[C@@H](CCCCN)C(=O)N[C@@H](CCCNC(=N)N)C(=O)N[C@@H](CCCNC(=N)N)C(=O)N[C@@H](CCC(N)=O)C(=O)N[C@@H](CCCNC(=N)N)C(=O)N[C@@H](CCCNC(=N)N)C(=O)N[C@@H](CCCNC(=N)N)C(N)=O)C(C)C)C(C)C)C(C)C` [Sample 2] (H-MQIPQAPWPVVWAVLQLGWRRKKRRQRRR-NH2; N-terminus assumed): the “antitumor activity (inhibitory activity of proliferation of tumor cells)” value in data set [3] is recorded as “excellent antitumor activity”. The “Cell viability (%)” value stood at 52.4% in data set [7] (test peptide concentration 12.5 μM); 9.1% in data set [7] (test peptide concentration 25.0 μM); 50.4% in data set [4] (NCI-H2444, test peptide concentration 12.5 μM, 48 hours, relative to medium without peptide = 100%); 3.6% in data set [4] (NCI-H2444, test peptide concentration 25.0 μM, 48 hours, relative to medium without peptide = 100%); 62.9% in data set [5] (HCC827, test peptide concentration 12.5 μM, 48 hours, relative to medium without peptide = 100%); 4.9% in data set [5] (HCC827, test peptide concentration 25.0 μM, 48 hours, relative to medium without peptide = 100%).

On to `CC[C@H](C)[C@H](NC(=O)[C@H](CCCNC(=N)N)NC(=O)[C@@H](N)CCSC)C(=O)N[C@@H](Cc1ccccc1)C(=O)N[C@@H](C)C(=O)N[C@H](C(=O)N[C@@H](Cc1ccccc1)C(=O)N[C@H](C(=O)N[C@@H](Cc1ccccc1)C(=O)N[C@@H](CCSC)C(=O)N[C@H](C(=O)N[C@@H](Cc1ccc(O)cc1)C(=O)N[C@@H](Cc1c[nH]c2ccccc12)C(=O)N[C@@H](Cc1c[nH]cn1)C(=O)N[C@@H](CC(C)C)C(=O)N[C@@H](CC(C)C)C(=O)N[C@@H](CC(N)=O)C(=O)N[C@@H](C)C(=O)N[C@@H](CCCCN)C(=O)N[C@@H](CCCCN)C(=O)N[C@@H](CCCNC(=N)N)C(=O)N[C@H](C(=O)N[C@@H](CC(C)C)C(=O)N[C@@H](CCCNC(=N)N)C(=O)N[C@@H](CCCCN)C(=O)N[C@@H](CC(N)=O)C(=O)N[C@@H](CC(=O)O)C(=O)N[C@@H](CCCNC(=N)N)C(=O)N[C@@H](CCCCN)C(=O)N[C@@H](CCCCN)C(=O)N[C@@H](CCCNC(=N)N)C(N)=O)[C@@H](C)O)[C@@H](C)O)[C@@H](C)CC)C(C)C` [Sample 3, reference compound] (H-MRIFAVFIFMTYWHLLNAKKRTLRKNDRKKR-NH2; N-terminus assumed), for which the “Cell viability (%)” value amounted to 100.9% in data set [1] (12.5 µM); 87.5% in data set [1] (25 µM); 89.3% in data set [2] (12.5 µM); 83.7% in data set [2] (25 µM); 106.3% in data set [4] (human, 48 h, 12.5 µM); 87.7% in data set [4] (human, 48 h, 25 µM). Moreover, the “Cell viability (%)” value is given as 105.4% in data set [5] (human, 48 h, 12.5 µM); 120.6% in data set [5] (human, 48 h, 25 µM); 67.9% in data set [6] (12.5 µM); 56.7% in data set [6] (25 µM). Besides, the viability at 48 h, 12.5 µM in the data set “in vitro” stood at 87.3%. Moreover, the viability at 48 h, 25 µM in the data set “in vitro” is 81.7%.

As for `CC[C@H](C)[C@H](NC(=O)[C@H](CC(C)C)NC(=O)[C@H](CC(C)C)NC(=O)[C@H](CCSC)NC(=O)[C@H](CCC(N)=O)NC(=O)[C@H](CCC(N)=O)NC(=O)[C@H](CCC(N)=O)NC(=O)[C@@H](NC(=O)[C@@H](NC(=O)[C@@H](NC(=O)[C@@H]1CCCN1C(=O)[C@@H]1CCCN1C(=O)[C@H](Cc1c[nH]c2ccccc12)NC(=O)[C@H](Cc1c[nH]c2ccccc12)NC(=O)[C@H](Cc1c[nH]c2ccccc12)NC(=O)[C@@H]1CCCN1)C(C)C)C(C)C)C(C)C)C(=O)NCC(=O)N[C@@H](C)C(=O)N[C@@H](C)C(=O)N[C@@H](CCCNC(=N)N)C(=O)N[C@@H](CCCCN)C(=O)N[C@@H](CCCCN)C(=O)N[C@@H](CCCNC(=N)N)C(=O)N[C@H](C(=O)N[C@@H](CC(C)C)C(=O)N[C@@H](CCCNC(=N)N)C(=O)N[C@@H](CCCCN)C(=O)N[C@@H](CC(N)=O)C(=O)N[C@@H](CC(=O)O)C(=O)N[C@@H](CCCNC(=N)N)C(=O)N[C@@H](CCCCN)C(=O)N[C@@H](CCCCN)C(=O)N[C@@H](CCCNC(=N)N)C(N)=O)[C@@H](C)O` [Sample 4] (H-PWWWPPVVVQQQMLLIGAARKKRTLRKNDRKKR-NH2; N-terminus assumed), the “Cell viability (%)” value stood at 110.9% in data set [5] (human, 48 h, 12.5 µM) and 102.6% in data set [5] (human, 48 h, 25 µM).

Regarding `CC(C)C[C@H](NC(=O)[C@@H](NC(=O)[C@H](CCCNC(=N)N)NC(=O)[C@H](CCCCN)NC(=O)[C@@H](N)CCCCN)[C@@H](C)O)C(=O)N[C@@H](CCCNC(=N)N)C(=O)N[C@@H](CCCCN)C(=O)N[C@@H](CC(N)=O)C(=O)N[C@@H](CC(=O)O)C(=O)N[C@@H](CCCNC(=N)N)C(=O)N[C@@H](CCCCN)C(=O)N[C@@H](CCCCN)C(=O)N[C@@H](CCCNC(=N)N)C(N)=O` [Sample 5, KKRTLRKNDRKKR-CONH2] (H-KKRTLRKNDRKKR-NH2; N-terminus assumed), the “Cell viability (%)” value in data set [5] (human, 48 h, 12.5 µM) turned out to be 106.7%; in data set [5] (human, 48 h, 25 µM) it was 106.5%.
